According to publication PMC4838304, “Effective Design of Multifunctional Peptides by Combining Compatible Functions” (PLoS Computational Biology, 2016):
Ends that are not written are not given here.

Experiments:
[1] = system: Escherichia coli strain DH5α; format: cell-based; settings: 12 h
[2] = Circular dichroism, secondary structure content (CONTIN/LL); format: physicochemical; settings: for Secondary Structure Random coil / Secondary Structure α-Helix / Secondary Structure β-Sheet: 0.3mg in 1mL, 20°C, far-UV CD, CONTIN/LL
Description: We studied the structural properties of the peptides in vitro, using circular dichroism (see Materials and Methods). The far-UV CD spectra for NLS-CE, NLS-α and NLS-α-CE in water matched the characteristics of a random coil conformation.
Circular dichroism spectra were recorded on a ChirascanTM CD Spectrometer (Applied Photophysics, UK) equipped with a peltier temperature controller. 0.3mg of each peptide was dissolved in 1mL of water or 50% aqueous trifluoroethanol and placed in quartz cuvettes of 0.1cm path length. Far-UV CD spectra were collected from 185 to 250 nm at 20°C. Spectra were averaged over 5 scans and the averaged blank spectra of solvents were subtracted. Ellipticity is reported as mean residue molar ellipticity and recorded in terms of molar elipticity [θ] (deg cm^2 dmol^−1). CONTIN/LL within the CDPro analysis software program was used to estimate the secondary structure content of the peptides.

BY4741 yeast cells = test: Internalization assay in yeast, confocal microscopy; format: cell-based, Saccharomyces cerevisiae; settings: TAMRA-labeled versions, 60 μM, BY4741, pictures at 0, 10 and 20 min
Source text: We first evaluated whether the designed peptides retained the activity of the templates. The presence of the NLS sequence may locate peptides in the nuclei of cells; for that to happen first the peptides have to be internalized. […] For yeast cells, confocal microscopy was used to evaluate CPP activity in our peptides (see Fig 2).
Fig 2 Designed peptides internalized into yeast cells. (A-F) Internalization assays in BY4741 yeast cells for peptide controls where Arg and Lys residues were replaced by Glu residues (A-C) and the original peptides (D-F). All peptides were used at 60 μM (final concentration) and labeled with the TAMRA fluorophore (see Table 1 and Materials and Methods for further details).
All 6 fluorogenic peptides (TAMRA-peptides, see Table 1) were prepared to 600μM in water as a 10X stock solution. Although all the peptides were apparently soluble in water, they all formed aggregates under the microscope. […] These samples were observed under a multi-photon confocal microscope (Olympus FV1000) and pictures were recorded at 0, 10 and 20 min after the peptide addition. […] Bright field images were chosen from the in-focus z-stack, whereas TAMRA images denote the average fluorescence across the entire z-stack to obtain the fluorescence inside the entire cell volume. Images were analyzed using Fiji (http://fiji.sc/Downloads#Fiji).

| Sequence | E. coli MIC for 100% inhibition [1] | Secondary Structure Random coil ([2]; 50% TFE) | Secondary Structure α-Helix ([2]; 50% TFE) | Secondary Structure β-Sheet ([2]; 50% TFE) | aggregation suggested by decrease in negative ellipticity ([2]; 50% TFE, CD spectra) | Secondary Structure Random coil ([2]; water) | Secondary Structure α-Helix ([2]; water) | Secondary Structure β-Sheet ([2]; water) | internalization into yeast cells (BY4741 yeast cells) |
| --- | --- | --- | --- | --- | --- | --- | --- | --- | --- |
| FRKWRRKPKKKRKVWWRKVKRRWHWLQLKPGQPMY [NLS-α-CE] | 2 µM | 59% | 10% | 31% | TFE promoted aggregation of the peptides | 64% | 6% | 30% | quickly accumulate in the cell membrane and inside the yeast cells |
| KRRWRFVWMNPKKKRKVPPWPYLLWWHWLQLKPGQPMY [chimera] | 22 µM | 48% | 24% | 28% |  | 59% | 8% | 33% | quickly accumulate in the cell membrane and inside the yeast cells |
